Data as given in patent US11851710B2, “Methods and materials for identifying metastatic malignant skin lesions and treating skin cancer” (Mayo Foundation for Medical Education and Research, priority 2014, dated 2023).
pEC50: −log10 of the molar value. Where “and” joins values, the source holds several entries; their conditions need not be identical. Identical values can stand only once. Like-named read-outs stand apart in the source and are kept apart here.

Assays:
SPP1 mRNA [1] = assay: SPP1 mRNA in M12 xenograft tumor tissue by quantitative PCR; type: in vivo, mice; conditions: all doses i.m. for six days
Description: (§1) FIGS. 15A-15J illustrate that pentamidine inhibits SPP1 expression, proliferation, and invasion of melanoma cells. […] FIGS. 15B-15D illustrate that pentamidine inhibits SPP1 promoter activity in the DUAL-GLO® assay (FIG. 15B), but also by quantitative PCR in normal WM858 (FIG. 15C) and M12 cells (FIG. 15D). […] FIG. 15I is a chart illustrating that pentamidine injections reduce SPP1, ([…], and t-PA (PLAT) mRNA expression in M12 PDX. Average of three mice is shown. PENTA, Pentamidine; DABRA, Dabrafenib. WM858 and M12 are B-rafV600E metastatic melanoma cells.
(§2) To determine whether Pentamidine reduces SPP1 expression in vivo, M12 cells were injected intradermally into female nude mice and left to grow until xenograft tumors formed (FIGS. 15H and 15I). Then, four different doses of Pentamidine were injected intramuscularly (i.m.) into groups of three mice for six consecutive days. It was previously shown that serum concentration in patients injected with 4 mg/kg Pentamidine i.m. daily (FDA labeling) range from 0.2-1.4 μg/mL (0.3-2.4 μM). In rats, slightly lower levels can be achieved using 10 mg/kg i.m. daily (0.1-0.4 μg/mL) (Bernard et al., J. Inf. Dis. 152:750-754 (1985) and Waalkes et al., Clin. Pharma. Therap. 11:505-512 (1969)). […] Tumors were subsequently harvested, lysed, and analyzed by quantitative PCR. […]

[2] = patients, 4 mg/kg i.m. daily (FDA labeling); cited from earlier work
t-PA (PLAT) mRNA = t-PA (PLAT) mRNA in M12 xenograft tumor tissue by quantitative PCR; type: in vivo, mice; conditions: all doses i.m. for six days
Description: as §1, §2

M12 cells [3] = assay: M12 proliferation, automated count of red-fluorescent nuclei (IncuCyte ZOOM); type: cell-based; conditions: Homo sapiens, nuclei counted over time, read-out: M12 proliferation ED50
Description: Automated quantification of cell proliferation was by the INCUCYTE™ kinetic imaging system (Essen Bioscience). Approximately 2,000 cells were seeded into a 96-well cell culture dish, eight replicates per condition over the indicated time. Data analysis was with the INCUCYTE ZOOM software package.
(§3) Pentamidine inhibited SPP1 mRNA in both WM858 (FIG. 15C) and M12 cells (FIG. 15D). […] Next, a red-fluorescent nuclear protein was stably expressed in M12 cells to automatically count nuclei over time (using the IncuCyte ZOOM system, Essen Bioscience), a surrogate measure of cell proliferation. Pentamidine reduced M12 proliferation with an ED50 of 40 μM.

[4] = rats, 10 mg/kg i.m. daily; cited from earlier work
in vitro [5] = type: cell-based; conditions: human
Description: as §3

β3 integrin mRNA = β3 integrin mRNA in M12 xenograft tumor tissue by quantitative PCR; type: in vivo, mice; conditions: all doses i.m. for six days
Description: as §1, §2

t-PA (PLAT) = assay: Expression of t-PA (PLAT) in melanoma cells; type: cell-based; conditions: FIG. 15E
Description: as §1, §3

SPP1 mRNA [6] = assay: SPP1 mRNA by quantitative PCR in WM858 cells; type: cell-based
Description: as §1, §3

in vitro [7] = type: cell-based; conditions: human; remark: listed apart in the source
Description: as §3

[8] = Tolerability of i.m. Pentamidine in nude mice with intradermal M12 xenografts; type: in vivo; conditions: six consecutive days, female nude mice
Description: To determine whether Pentamidine reduces SPP1 expression in vivo, M12 cells were injected intradermally into female nude mice and left to grow until xenograft tumors formed (FIGS. 15H and 15I). Then, four different doses of Pentamidine were injected intramuscularly (i.m.) into groups of three mice for six consecutive days. It was previously shown that serum concentration in patients injected with 4 mg/kg Pentamidine i.m. daily (FDA labeling) range from 0.2-1.4 μg/mL (0.3-2.4 μM). In rats, slightly lower levels can be achieved using 10 mg/kg i.m. daily (0.1-0.4 μg/mL) (Bernard et al., J. Inf. Dis. 152:750-754 (1985) and Waalkes et al., Clin. Pharma. Therap. 11:505-512 (1969)). In the current study, at the highest Pentamidine dose (80 mg/kg/daily), all mice died. Mice survived at 40 mg/kg/day, but appeared sick. […] Tumors were subsequently harvested, lysed, and analyzed by quantitative PCR. All doses of Pentamidine led to a reduction of SPP1, β3 integrin, and t-PA (PLAT) mRNA expression in tumor tissue (FIG. 15J).

SPP1 promoter = SPP1 promoter dual luciferase (DUAL-GLO) screen of LOPAC library in WM858 cells; type: cell-based; conditions: WM858 cells with luciferase-tagged SPP1 promoter
Description: FIG. 14 depict the luciferase construct for high-throughput screening. Genomic structure of the SPP1 gene is shown as well as a targeting approach. A DNA double-strand break was induced in exon (E) 2 of SPP1, 3′ of the ATG start codon by a custom-made zinc finger nuclease (ZFN), arrow. A targeting vector with 500 bp homology arms (HA, middle), Hygromycin resistance (HYGRO), a target promoter-driven firefly luciferase (LUC2P), and a CMV-pomoter driven renilla luciferase (HRLUC) was offered for repair at the time of the double-strand break. PA, PA terminator signal. Blue boxes, untranslated region; black boxes, translated region.
Osteopontin (SPP1) is a proto-typical cancer-associated extracellular matrix gene and ligand of αv and α5β1 integrins. SPP1 is highly overexpressed in melanoma (Talantov et al., Clin. Cancer Res. 11:7234-42 (2005)) and its upregulation correlates with metastasis risk (Conway et al., Clin. Cancer Res. 15:6939-6946 (2009) and Mitra et al., Br. J. Cancer 103:1229-1236 (2010)). To rapidly screen chemical compounds for their ability to inhibit SPP1 expression in vitro, the endogenous SPP1 promoter of WM858 melanoma cells was tagged with a dual luciferase system using zinc finger nucleases. The SPP1-promoter drives firefly luciferase tagged with a protein degradation sequence (hPEST). A CMV-promoter driven renilla luciferase was used as a loading control (FIG. 14). […]

SPP1 mRNA [9] = assay: SPP1 mRNA by quantitative PCR in M12 cells; type: cell-based, human
Description: as §1, §3

M12 cells [10] = assay: M12 invasion into Matrigel-embedded scratch wounds; type: cell-based, human; conditions: 2 mg/mL Matrigel, compared with Dabrafenib
Description: as §1, §3

β3 integrin (ITGB3) = assay: Expression of β3 integrin (ITGB3) in melanoma cells; type: cell-based; conditions: FIG. 15E
Description: as §1, §3

ERK = ERK activity (phospho-ERK) by Western blotting after overnight drug incubation; type: cell-based; conditions: WM858 melanoma cells, 5 μM
Description: (§4) FIGS. 13A-13P illustrate B-raf^V600E inhibits FAK to promote integrin surface expression. FIG. 13A: shRNAs 841, 102 and NC were induced in WM858 cells by IPTG for 5 days (n=4) followed by RNA quantitation. Genes regulated at 0 vs. 0.05 mM IPTG in 841 and 102 but not NC cells are shown. These were: ITGB3 (orange), FAK (blue). Light orange, light blue: up- or down-regulation, respectively, by either 841 or 102 shRNA. FIG. 13B: WM858 cells were transfected with FAK or EGFP cDNA. Regulated genes, FAK over EGFP cells, are shown in orange (up) or blue (down) (n=4). FIG. 13C: Flow cytometry of NC, 841 and 102 cells (un-induced vs. 0.05 mM IPTG for 5 days). FIG. 13D: Integrin cell surface mean intensities; mean.+−.s.d.; n=3; *, p<0.05; p values, Student's t-test; ns, not significant. FIG. 13E: Visualization of focal adhesions by paxillin staining on micropatterned fibronectin disks. […] FIGS. 13M-13O: FAK/ERK levels in NHM and WM858 after overnight drug incubation (FIG. 13M); quantification of FAK (FIG. 13N) and ERK phosphorylation (FIG. 13O); mean.+−.s.d.; n=4; *, p<0.05; p values, Student's t-test. […]
(§5) PYK2, a FAK-like tyrosine kinase, could not be detected in WM858 cells, irrespective of endogenous FAK levels. WM858 cells carrying control (NC) or FAK-specific shRNAs (841 and 102) were then exposed to IPTG for 5 days, and changes in adhesion gene expression were subsequently quantified by PCR. […]

β3 integrin = assay: Cell surface β3 integrin expression by flow cytometry after overnight drug incubation; type: cell-based; conditions: 5 μM
Description: (§6) FIGS. 13A-13P illustrate B-raf^V600E inhibits FAK to promote integrin surface expression. FIG. 13A: shRNAs 841, 102 and NC were induced in WM858 cells by IPTG for 5 days (n=4) followed by RNA quantitation. Genes regulated at 0 vs. 0.05 mM IPTG in 841 and 102 but not NC cells are shown. These were: ITGB3 (orange), FAK (blue). Light orange, light blue: up- or down-regulation, respectively, by either 841 or 102 shRNA. FIG. 13B: WM858 cells were transfected with FAK or EGFP cDNA. Regulated genes, FAK over EGFP cells, are shown in orange (up) or blue (down) (n=4). FIG. 13C: Flow cytometry of NC, 841 and 102 cells (un-induced vs. 0.05 mM IPTG for 5 days). FIG. 13D: Integrin cell surface mean intensities; mean.+−.s.d.; n=3; *, p<0.05; p values, Student's t-test; ns, not significant. FIG. 13E: Visualization of focal adhesions by paxillin staining on micropatterned fibronectin disks. FIGS. 13F and 13G: Proliferation speed in the absence (FIG. 13F) or presence (FIG. 13G) of FAK shRNAs; mean.+−.s.d.; n=8; *, p<0.05; p values, Student's t-test; ns, not significant. FIGS. 13H and 13I: Scratch wound healing in IPTG-induced cells; representative experiment (n=3). FIGS. 13J and 13K: Effect of IPTG-induced FAK knock-down on total (t) and phospho (p)-ERK; mean.+−.s.d.; n=4; *, p<0.05; p values, Student's t-test. FIG. 13L: Cell surface β1 and β3 integrin expression (flow cytometry) in B-raf^V600E and wild-type cells after overnight drug incubation; % expression relative to DMSO is shown. FIGS. 13M-13O: FAK/ERK levels in NHM and WM858 after overnight drug incubation (FIG. 13M); quantification of FAK (FIG. 13N) and ERK phosphorylation (FIG. 13O); mean.+−.s.d.; n=4; *, p<0.05; p values, Student's t-test. FIG. 13P: ERK activity in NC, 841 and 102 cells (0.05 mM IPTG for 5 days) after overnight drug incubation.
Isopropyl β-D-1-thiogalactopyranoside (IPTG), 4′,6-Diamidino-2-phenylindole dihydrochloridemitomycin (DAPI), blebbistatin and PF-573228 were purchased from Sigma-Aldrich. Dabrafenib (GSK2118436) was purchased from Selleckchem. FAK antibody (06-543) was from EMD MILLIPORE®. FAK pY397 (44624G) antibody was from Life Technologies. Total ERK (9102) and phospho-ERK (4370) antibodies were from Cell Signaling. Paxillin (610051), ITGB3 (555754), ITGB1 (555443) and mouse IgG1 kappa (555749) antibodies were from BD Transduction Labs. Drugs were used at 5 μM final concentration. EGFP control cDNA was from (Lonza). […]
as §5

β1 integrin = assay: Cell surface β1 integrin expression by flow cytometry after overnight drug incubation; type: cell-based; conditions: 5 μM
Description: as §6
Isopropyl β-D-1-thiogalactopyranoside (IPTG), 4′,6-Diamidino-2-phenylindole dihydrochloridemitomycin (DAPI), blebbistatin and PF-573228 were purchased from Sigma-Aldrich. Dabrafenib (GSK2118436) was purchased from Selleckchem. FAK antibody (06-543) was from EMD MILLIPORE®. FAK pY397 (44624G) antibody was from Life Technologies. Total ERK (9102) and phospho-ERK (4370) antibodies were from Cell Signaling. Paxillin (610051), ITGB3 (555754), ITGB1 (555443) and mouse IgG1 kappa (555749) antibodies were from BD Transduction Labs. Drugs were used at 5 μM final concentration. EGFP control cDNA was from (Lonza). FAK cDNA was obtained from A. Huttenlocher, Addgene plasmid number 35039 (Chan et al., J. Biol. Chem., 285:11418-26 (2010)).
PYK2, a FAK-like tyrosine kinase, could not be detected in WM858 cells, irrespective of endogenous FAK levels. WM858 cells carrying control (NC) or FAK-specific shRNAs (841 and 102) were then exposed to IPTG for 5 days, and changes in adhesion gene expression were subsequently quantified by PCR. […] Moreover, Dabrafenib-induced blockage of ERK activity could be partially reversed by a complete FAK knock-down in 102 cells (FIG. 13P).

FAK = biological target: T1, FAK (Homo sapiens, UniProt Q05397); assay: FAK Y397 auto-phosphorylation by Western blotting after overnight drug incubation; type: cell-based; conditions: melanoma cells, 5 μM
T1 construct: FAK/ERK levels in NHM and WM858 after overnight drug incubation; endogenous in cells; host or cells: WM858 melanoma cells and NHM
T1 sequence (Q05397 whole entry): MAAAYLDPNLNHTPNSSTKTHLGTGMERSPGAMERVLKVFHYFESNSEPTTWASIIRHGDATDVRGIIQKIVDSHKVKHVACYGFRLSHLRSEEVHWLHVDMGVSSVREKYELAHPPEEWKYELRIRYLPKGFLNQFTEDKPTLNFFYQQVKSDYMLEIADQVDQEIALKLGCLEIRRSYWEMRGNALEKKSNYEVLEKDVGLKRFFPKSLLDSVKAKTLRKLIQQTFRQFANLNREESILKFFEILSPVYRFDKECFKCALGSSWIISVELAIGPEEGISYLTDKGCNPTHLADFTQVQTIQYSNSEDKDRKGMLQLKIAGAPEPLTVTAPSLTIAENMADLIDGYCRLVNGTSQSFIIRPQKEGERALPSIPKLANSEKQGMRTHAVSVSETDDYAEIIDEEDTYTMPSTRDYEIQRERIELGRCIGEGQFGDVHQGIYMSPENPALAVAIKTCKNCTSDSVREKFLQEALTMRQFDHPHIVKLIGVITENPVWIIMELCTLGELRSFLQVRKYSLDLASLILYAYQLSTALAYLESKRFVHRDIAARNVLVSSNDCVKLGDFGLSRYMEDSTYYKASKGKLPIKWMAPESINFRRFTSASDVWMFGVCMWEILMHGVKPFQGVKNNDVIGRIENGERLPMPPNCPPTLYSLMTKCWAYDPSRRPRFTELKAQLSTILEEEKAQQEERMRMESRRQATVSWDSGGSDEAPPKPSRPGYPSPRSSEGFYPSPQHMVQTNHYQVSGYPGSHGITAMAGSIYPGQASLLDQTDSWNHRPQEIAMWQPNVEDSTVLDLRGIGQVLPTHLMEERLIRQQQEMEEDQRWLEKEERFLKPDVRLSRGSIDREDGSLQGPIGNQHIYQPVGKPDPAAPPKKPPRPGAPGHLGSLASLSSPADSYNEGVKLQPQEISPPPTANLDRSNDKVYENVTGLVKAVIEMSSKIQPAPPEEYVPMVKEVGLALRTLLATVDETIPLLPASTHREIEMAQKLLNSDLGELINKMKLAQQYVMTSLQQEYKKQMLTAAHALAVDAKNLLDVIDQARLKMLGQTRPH
Description: as §4, §5

Compound: N=C(N)c1ccc(OCCCCCOc2ccc(C(=N)N)cc2)cc1 [Pentamidine, 4,4′-[pentane-1,5-diylbis(oxy)]dibenzenecarboximidamide]
- SPP1 mRNA expression in tumor tissue (SPP1 mRNA [1]): reduction
- serum concentration [2]: 0.2-1.4 μg/mL and 0.3-2.4 μM
- t-PA (PLAT) mRNA expression in tumor tissue (t-PA (PLAT) mRNA): reduction
- pEC50 (M12 cells [3]): 4.40
- serum concentration [4]: 100 to 400 ng/mL
- pEC50 (in vitro [5]): < 4.00
- β3 integrin mRNA expression in tumor tissue (β3 integrin mRNA): reduction
- expression of t-PA (PLAT) (t-PA (PLAT)): reduced
- SPP1 mRNA (SPP1 mRNA [6]): inhibited
- pEC50 (in vitro [7]): < 4.00
- survival / tolerability of mice ([8]; 40 mg/kg/day i.m.): appeared sick
- survival / tolerability of mice ([8]; 80 mg/kg/daily i.m.): all mice died
- survival / tolerability of mice ([8]; other two doses, specifically 8 mg/kg/day i.m.): well tolerated
- Normalized ratio: firefly signal normalized to renilla signal, then to DMSO-treated control wells (SPP1 promoter): < 0.25
- SPP1 mRNA (SPP1 mRNA [9]): inhibited
- Matrigel invasion (M12 cells [10]): more effectively than Dabrafenib
- expression of β integrin (β3 integrin (ITGB3)): reduced

Compound: CC(C)(C)c1nc(-c2cccc(NS(=O)(=O)c3c(F)cccc3F)c2F)c(-c2ccnc(N)n2)s1 [Dabrafenib]
- ERK activity (ERK): blockage
- integrin levels (cell surface β3) (β3 integrin; NHM): not
- integrin levels (cell surface β3) (β3 integrin; most melanoma cells): reduced
- integrin levels (cell surface β1) (β1 integrin; NHM): not
- integrin levels (cell surface β1) (β1 integrin; most melanoma cells): reduced
- FAK tyrosine (Y) 397 auto-phosphorylation (FAK): increased
